Test results from US20070117836A1, “NAPTHALIMIDE DERIVATIVES, METHODS FOR THEIR PRODUCTION AND PHARMACEUTICAL COMPOSITIONS THEREFROM” (priority 2004, published 2007).
Where two headings read alike, the source gives them in different places.

Assays:
[1] = system: Six human cancer cell lines (Hs683, U-373MG, HCT-15, LoVo, A549, MCF-7); assay: MTT test of overall cell growth; assay type: cell-based; details: range of molar concentrations giving 50% inhibition of overall tumor cells growth, MTT, 72 hours incubation, six human cancer cell lines, read-out: IC50
Method: In order to characterize the in vitro activity of the compounds of the invention, MTT tests were performed to indirectly and rapidly measure, i.e. within 5 days, the effect of such a compound on the overall cell growth. The test measures the number of metabolically active living cells that are able to transform the yellow product 3-(4,5-dimethylthiazol-2-yl)-2,5-diphenyl tetrazolium bromide (herein referred as MTT) into the blue product formazan dye by mitochondrial reduction. The amount of formazan obtained at the end of the experiment was measured by means of a spectrophotometer and is directly proportional to the number of living cells. Determination of the optical density enables a quantitative measurement of the effect of the investigated compounds as compared to the control condition (untreated cells) and/or to other reference compounds (in casu mitonafide and amonafide).
Six human cancer cell lines described in table 1 were used in the MTT tests. These cell lines cover four histological cancer types, being glioma, colon, lung and breast cancers. Cells were allowed to grow in 96-well micro-wells with a flat bottom with an amount of 100 μl of cell suspension per well with 1,000 to 4,000 cells/well depending on the cell type used. Each cell line was seeded in an MEM 5% serum culture medium.
The detailed experimental procedure was as follows: after a 24-hour period of incubation at 37° C., the culture medium was replaced by 100 μl of fresh medium in which the compound to be tested was dissolved at the following molar concentrations: 10^−9 M, 5.10^−9 M, 10^−8 M, 5.10^−8 M, 10^−7 M, 5.10^−7 M, 10^−6 M, 5.10^−6 M and 10^−5 M. Each experiment was repeated 6 times.
After 72 hours of incubation at 37° C. with (experimental conditions) or without (control condition) the compound to be tested, the medium was replaced by 100 μl MTT dissolved in RPMI at a concentration of 1 mg/ml. The micro-wells were subsequently incubated during 3 hours at 37° C. and centrifuged at 400 g during 10 minutes. MTT was removed and formazan crystals formed were dissolved in 100 μl DMSO. The micro-wells were shaken for 5 minutes and read on a spectrophotometer at wavelengths of 570 nm (maximum formazan absorbance) and 630 nm (background noise).
For each experimental condition, the mean optical density was calculated, as well as the percentage of remaining living cells in comparison with the control.

L1210 (Mouse Leukemia) = assay: L1210 mouse leukemia model, survival; assay type: in vivo, mice; details: median day of death treated/control; for response vs control in vivo at 10 mg/kg / response vs control in vivo at 20 mg/kg / response vs control in vivo at 40 mg/kg / response vs control in vivo at 80 mg/kg / response vs control in vivo at 2.5 mg/kg / response vs control in vivo at 5 mg/kg: Mus musculus, L1210, ip; for response vs control in vivo at 2.5 mg/kg: read-out: T/C (%), dose 2.5 mg/kg intraperitoneally at days 1, 2, 3, 4, 7, 8, 9 and 10; for response vs control in vivo at 5 mg/kg: read-out: T/C (%), dose 5 mg/kg intraperitoneally at days 1, 2, 3, 4, 7, 8, 9 and 10
Method: L1210 is a syngeneic model (Mouse Leukemia) which may be used to define an optimal treatment regimen (doses and schedule) for subsequent testing of drugs in more expensive and time-consuming orthotopic human xenograft models. The model was performed with 5 mice per group, said mice being grafted at day 0 and the tested compounds being injected intraperitoneally (at the dose indicated in table 4) at days 1, 2, 3, 4, 7, 8, 9 and 10 respectively. The data shown in table 4 are T/C values which were calculated by dividing the median day of death in a treated group T by the median day of death in the control group C. T/C values of 130% or more (i.e. a prolongation of mice survival of 30% or more) indicate a significant prolongation of survival.
The experimental procedure of example 25 was repeated with compounds of examples 17, 19, 33 and 35, and the data obtained from this experiment are reported in table 7.

in vivo = details: mouse
Method: (§1) The maximum tolerated dose (herein after MTD) is defined as the maximum amount of a given drug which can be administered acutely (i.e. in one intraperitoneal, intravenous, subcutaneous or oral single dose) to healthy animals, i.e. animals not grafted with tumors. The survival times and weights of the animals are recorded up to 14 days post injection. Five different doses of each drug are used for the determination of the MTD index. […] Each experimental group comprised 3 mice for the determination of the MTD index (expressed in mg/kg).

healthy animals = details: single dose to healthy mice, 3 mice per group, survival and weights recorded up to 14 days post injection
Method: as §1

patients = patients receiving five daily doses; leading to some deaths; cited from earlier work
leukemia models in mice = details: background statement; cited from earlier work
[2] = system: primary human solid tumours; details: Ajani et al. Invest New Drugs (1988) 6:79-83; cited from earlier work
[3] = system: human tumour xenografts in mice with colon, lung and mammary cancers; details: background statement; cited from earlier work
[4] = read-out: T/C (%), dose 10 mg/kg intraperitoneally at days 1, 2, 3, 4, 7, 8, 9 and 10
[5] = read-out: T/C (%), dose 20 mg/kg intraperitoneally at days 1, 2, 3, 4, 7, 8, 9 and 10
[6] = dose 10 mg/kg intraperitoneally at days 1, 2, 3, 4, 7, 8, 9 and 10, read-out: T/C (%)
[7] = dose 20 mg/kg intraperitoneally at days 1, 2, 3, 4, 7, 8, 9 and 10, read-out: T/C (%)
[8] = dose 40 mg/kg intraperitoneally at days 1, 2, 3, 4, 7, 8, 9 and 10, read-out: T/C (%)
[9] = dose 80 mg/kg intraperitoneally at days 1, 2, 3, 4, 7, 8, 9 and 10, read-out: T/C (%)
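Wherever MTD is given: highest single acute dose (intraperitoneal, intravenous, subcutaneous or oral) tolerated by tumor-free mice, assessed across five dose levels per drug.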

| SMILES | MTD at 14 days (in vivo) [mg/kg] | IC50 ([1]; Homo sapiens, 72 h) [µM] | response vs control in vivo at 10 mg/kg (L1210 (Mouse Leukemia); [6]) [%] | response vs control in vivo at 20 mg/kg (L1210 (Mouse Leukemia); [7]) [%] | response vs control in vivo at 40 mg/kg (L1210 (Mouse Leukemia); [8]) [%] | response vs control in vivo at 80 mg/kg (L1210 (Mouse Leukemia); [9]) [%] | MTD at 14 days (in vivo; intraperitoneal) [mg/kg] | further results |
| --- | --- | --- | --- | --- | --- | --- | --- | --- |
| CN(C)CCN1C(=O)c2cccc3cc(NC(=O)NC(=O)C(Cl)(Cl)Cl)cc(c23)C1=O [Example 2, 2,2,2-trichloro-N-[({2-[2-(dimethylamino)ethyl]-1,3-dioxo-2,3-dihydro-1H-benzo[de]isoquinolin-5-yl}amino)carbonyl]acetamide] | > 160 | – | – | – | – | – | – | IC50 [1]: 0.5 to 1 µM; response vs control in vivo at 10 mg/kg (L1210 (Mouse Leukemia); [4]): 128%; response vs control in vivo at 20 mg/kg (L1210 (Mouse Leukemia); [5]): 156%; response vs control in vivo at 40 mg/kg (L1210 (Mouse Leukemia); read-out: T/C (%), dose 40 mg/kg intraperitoneally at days 1, 2, 3, 4, 7, 8, 9 and 10): 177%; response vs control in vivo at 80 mg/kg (L1210 (Mouse Leukemia); read-out: T/C (%), dose 80 mg/kg intraperitoneally at days 1, 2, 3, 4, 7, 8, 9 and 10): 194% |
| CN(C)CCN1C(=O)c2cccc3cc(NC(=O)Nc4ccc(C#N)cc4)cc(c23)C1=O [Example 7, N-[2-[2-(dimethylamino)ethyl]-1,3-dioxo-2,3-dihydro-1H-benzo[de]isoquinolin-5-yl]-N′-(4-cyanophenyl)urea] | – | 1 to 5 | 140 | 147 | 147 | 213 | > 160 | – |
| CN(C)CCN1C(=O)c2cccc3cc(NC(=O)Nc4ccc5c(c4)OCO5)cc(c23)C1=O [Example 9] | – | 5 to 10 | 113 | 140 | 160 | 187 | > 160 | – |
| CN(C)CCN1C(=O)c2cccc3cc(NC(=O)Nc4ccc(OC(F)(F)F)cc4)cc(c23)C1=O [Example 10] | – | 1 to 5 | 117 | 156 | 139 | 194 | > 160 | – |
| CN(C)CCN1C(=O)c2cccc3cc(N=Cc4ccc5c(c4)OCO5)cc(c23)C1=O [Example 17, 5-{[(1Z)-1,3-benzodioxol-5-ylmethylene]amino}-N-{2-[2-(dimethylamino)ethyl]-1H-benzo[de]isoquinoline-1,3(2H)-dione] | – | > 10 | 120 | 233 | 207 | 280 | 80 | – |
| CN(C)CCN1C(=O)c2cccc3cc(/N=C\c4cc(O)ccc4O)cc(c23)C1=O [Example 19, 2-[2-(dimethylamino)ethyl]-5-{[(1Z)-(2,5-dihydroxyphenyl)methylene]amino}-1H-benzo[de]isoquinoline-1,3(2H)-dione] | – | 10 | 150 | 144 | 231 | 275 | 80 | – |
| CN(C)CCN1C(=O)c2cccc3cc(NC(=O)NC(=O)C(Cl)(Cl)Cl)cc(c23)C1=O.Cl [Example 33, 2,2,2-trichloro-N-[({2-[2-(dimethylamino)ethyl]-1,3-dioxo-2,3-dihydro-1H-benzo[de]isoquinolin-5-yl}amino)carbonyl]acetamide hydrochloride] | 120 | – | – | – | – | – | – | IC50 ([1]; hydrochloride): 5 to 10 µM; T/C (%) (L1210 (Mouse Leukemia); dose 10 mg/kg intraperitoneally at days 1, 2, 3, 4, 7, 8, 9 and 10): 148%; T/C (%) (L1210 (Mouse Leukemia); dose 20 mg/kg intraperitoneally at days 1, 2, 3, 4, 7, 8, 9 and 10): 138%; T/C (%) (L1210 (Mouse Leukemia); dose 40 mg/kg intraperitoneally at days 1, 2, 3, 4, 7, 8, 9 and 10): 186%; T/C (%) (L1210 (Mouse Leukemia); dose 80 mg/kg intraperitoneally at days 1, 2, 3, 4, 7, 8, 9 and 10): 200% |
| CN(C)CCN1C(=O)c2cccc3cc(/N=C\c4cc(O)ccc4O)cc(c23)C1=O.Cl [Example 34] | – | – | – | – | – | – | – | MTD (healthy animals): 40 mg/kg |
| CN(C)CCN1C(=O)c2cccc3cc(N=Cc4cc5c(cc4[N+](=O)[O-])OCO5)cc(c23)C1=O [Example 35, 5-{[(1Z)-benzo([1,3]dioxol-6-nitro)-5-yl-methylene]amino}-N-(2-[2-dimethylamino)ethyl]-1H-benzo[de]isoquinolin-1,3(2H)-dione] | 80 | > 10 | 213 | 193 | 280 | > 300 | – | – |
| CN(C)CCN1C(=O)c2cccc3cc(NCc4ccc5c(c4)OCCO5)cc(c23)C1=O [Example 42] | > 80 | 5 to 10 | – | – | – | – | – | – |
| CN(C)CCN1C(=O)c2cccc3cc(N)cc(c23)C1=O [amonafide, N-(2-dimethylaminoethyl)-3-amino-1,8-naphthalimide, reference compound] | 40 | 1 to 5 | – | – | – | – | – | response vs control in vivo at 2.5 mg/kg (L1210 (Mouse Leukemia)): 120%; response vs control in vivo at 5 mg/kg (L1210 (Mouse Leukemia)): 140%; response vs control in vivo at 10 mg/kg (L1210 (Mouse Leukemia); [4]): 120%; response vs control in vivo at 20 mg/kg (L1210 (Mouse Leukemia); [5]): 120%; myelotoxicity in patients (patients): substantial myelotoxicity; activity in leukemia models in mice (leukemia models in mice): only moderate activity; activity in primary human solid tumours in vitro [2]: poor activity; activity in human tumour xenografts in mice [3]: no activity |
| CN(C)CCN1C(=O)c2cccc3cc([N+](=O)[O-])cc(c23)C1=O [mitonafide, reference compound] | 40 | 1 to 5 | – | – | – | – | – | response vs control in vivo at 2.5 mg/kg (L1210 (Mouse Leukemia)): 107%; response vs control in vivo at 5 mg/kg (L1210 (Mouse Leukemia)): 140%; response vs control in vivo at 10 mg/kg (L1210 (Mouse Leukemia); [4]): 120%; response vs control in vivo at 20 mg/kg (L1210 (Mouse Leukemia); [5]): 193% |
